Reference: patent publication US20080293699A1, “Inhibitors of thapsigargin-induced cell death” (priority 2007, published 2008)

Key:
Format in all cases: cell-based, rat
CSM14.1 cells = experiment: Annexin V staining viability assay (flow cytometry), thapsigargin-treated undifferentiated CSM14.1 cells; conditions: hit compounds 25 μM, TG 15 μM
Method: Undifferentiated CSM14.1 cells were cultured as for FIG. 16. The next day, DMSO (a, b) (1% final volume), 100 μM Salubrinal (c, d) or 25 μM of hit compounds (1% final DMSO) was added. After two hrs, 15 μM TG was added to all wells except a and c. The plates were returned to culture for 24 hrs, then cells were recovered by trypsinization, transferred to 1.5 ml microcentrifuge tubes, and resuspended in 0.5 mL of Annexin V-binding solution. The percentage of annexin V-negative cells was determined by flow-cytometry (y-axis). Treatments and compounds were the same as in FIG. 16.
One method we have employed, for example, for confirming protection against TG-induced killing uses fluorochrome-conjugated annexin V staining with flow-cytometry analysis to evaluate the percentage cell viability by a method that is independent of the ATP content assay.
FIGS. 16 and 17 show the results of a secondary assay for evaluating the cytoprotective activity of the compounds. In FIG. 16, undifferentiated CSM14.1 cells were cultured at 10^4 cells per well of 24-well plates (Greiner Bio One). The next day, DMSO (a, b) (1% final volume), 100 μM Salubrinal (c, d) or 25 μM of hit compounds (1% final DMSO) was added. After two hrs, 15 μM TG was added to all wells except a and c. A conventional ATP assay was performed to measure survival rate. In FIG. 17 undifferentiated CSM14.1 cells were cultured at 10^4 cells per well of 24-well plates (Greiner Bio One). The next day, DMSO (a, b) (1% final volume), 100 μM Salubrinal (c, d) or 25 μM of hit compounds (1% final DMSO) was added. After two hrs, 15 μM TG was added to all wells except a and c. […] The percentage of annexin V-negative cells was determined by flow-cytometry (y-axis), using a FACSort instrument (Beckton-Dickinson). […]
7) The percentage of annexin V-negative cells was determined by flow-cytometry (y-axis), using a FACSort analysis facility in Burnham (Beckton & Dickinson)

ATF4 = experiment: Thapsigargin-induced expression of ATF4 (immunoblotting); conditions: listed as CID-2878746
ATF6 = ATF6 proteolytic processing (immunoblotting); conditions: immunoblotting to detect cleaved form; listed as CID-2878746
Description: After confirming the pathway selectivity of compounds, additional downstream assays can be performed to map the specific signal transduction pathway inhibited by the compounds. In this regard, various antibody reagents are commercially available for assessing the status of the three major pathways known to be activated by ER stress: (1) PERK, (2) Ire1, and (3) ATF6 (Xu et al., J. Clinical Invest., 115:2656-2664, 2005). Immunoblotting experiments can be performed to assess the expression or phosphorylation (using phospho-specific antibodies) of marker proteins in these pathways. […] Cell lysates were prepared and analyzed by SDS-PAGE/immunoblotting using antibodies specific for phospho-c-Jun, phospho-eIF2α, phospho-p38 MAPK, and tubulin (a loading control). […] After two hrs, cell lysates were prepared, normalized for protein content, and either analyzed by SDS-PAGE/immunoblotting using anti-p38-MAPK pan-reactive antibody or phospho-specific antibody with ECL-based detection, followed by densitometry analysis of x-ray films, normalizing phosphor-p38 MAPK relative to total p38 MAPK, or analyzed using a meso-scale instrument from MSD and a procedure in which total p38 MAPK is captured on plates, and the relative amounts of phosphorylated protein were determined using phospho-specific antibody (MSD catalog #K15112D1). […]

Structure (SMILES): CCN(CC)c1ccc(C2Nc3ccccc3NC3=C2C(=O)CC(c2ccccc2)C3)cc1 (stereo not drawn) [Compound 5962123, 6-(4-diethylaminophenyl)-9-phenyl-5,6,8,9,10,11-hexahydrobenzo[c][1,5]benzodiazepin-7-one]
- Protection against TG-induced cell death measured by annexin V staining (CSM14.1 cells): confirmed
- Thapsigargin-induced expression of ATF4 (ATF4): not inhibited
- ATF6 proteolytic processing (ATF6): not inhibited
